Results published in patent US9120820B2, “Fluorescent molecular probes for use in assays that measure test compound competitive binding with SAM-utilizing proteins” (CAYMAN CHEMICAL COMPANY, INCORPORATED, priority 2011, dated 2015).

Key:
Assay type in all cases: biochemical
G9a = molecular target: T1, G9a (Homo sapiens, UniProt Q96KQ7); experiment: Radiometric methyltransferase assay, G9a; conditions: G9a 200 nM; compound 10 μM, 1 μM, or 0.1 μM; FIG. 13
T1 construct: purchased Cayman 49010353
T1 sequence (Q96KQ7 1-1210): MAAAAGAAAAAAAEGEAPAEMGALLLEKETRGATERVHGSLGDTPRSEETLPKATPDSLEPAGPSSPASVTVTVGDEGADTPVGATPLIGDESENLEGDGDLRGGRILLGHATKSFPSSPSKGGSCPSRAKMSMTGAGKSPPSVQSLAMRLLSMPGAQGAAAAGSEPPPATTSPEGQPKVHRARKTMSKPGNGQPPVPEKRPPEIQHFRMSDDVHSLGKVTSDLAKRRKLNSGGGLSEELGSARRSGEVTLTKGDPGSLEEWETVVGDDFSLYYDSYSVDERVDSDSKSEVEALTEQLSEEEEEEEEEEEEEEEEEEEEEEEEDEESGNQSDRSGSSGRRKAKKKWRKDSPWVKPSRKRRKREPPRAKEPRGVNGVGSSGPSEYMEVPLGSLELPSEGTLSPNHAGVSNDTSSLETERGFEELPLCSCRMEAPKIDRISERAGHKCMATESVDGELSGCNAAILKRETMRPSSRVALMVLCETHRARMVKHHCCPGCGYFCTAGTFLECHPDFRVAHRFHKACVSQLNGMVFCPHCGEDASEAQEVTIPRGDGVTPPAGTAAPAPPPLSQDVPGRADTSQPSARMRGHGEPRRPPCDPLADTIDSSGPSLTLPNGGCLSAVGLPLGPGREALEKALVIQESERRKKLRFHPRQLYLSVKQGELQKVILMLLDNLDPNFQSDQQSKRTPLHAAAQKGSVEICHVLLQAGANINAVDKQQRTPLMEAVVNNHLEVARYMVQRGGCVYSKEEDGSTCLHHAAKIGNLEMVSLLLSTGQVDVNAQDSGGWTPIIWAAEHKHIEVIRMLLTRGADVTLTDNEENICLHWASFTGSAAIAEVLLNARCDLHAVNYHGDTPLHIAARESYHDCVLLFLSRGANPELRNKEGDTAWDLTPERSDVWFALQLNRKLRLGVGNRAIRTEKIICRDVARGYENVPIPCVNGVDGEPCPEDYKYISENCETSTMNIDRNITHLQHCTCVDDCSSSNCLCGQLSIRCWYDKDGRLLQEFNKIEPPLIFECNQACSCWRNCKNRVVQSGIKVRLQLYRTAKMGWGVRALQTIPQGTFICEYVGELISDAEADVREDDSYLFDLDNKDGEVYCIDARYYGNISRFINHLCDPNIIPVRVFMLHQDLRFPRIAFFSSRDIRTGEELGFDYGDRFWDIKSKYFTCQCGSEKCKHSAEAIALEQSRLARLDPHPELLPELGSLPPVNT
Procedure: (§1) Reagents: Compound 16A was prepared by the method described in Example 4 and illustrated in FIG. 5. The Compounds 20A-iv and 20A-iii were prepared according to methods described in Example 6 and illustrated in FIG. 7. Enzymes were obtained from the Cayman Catalog with the exception of PRMT4 and PRMT6, which were produced in baculovirus and purified to near homogeneity using Ni-affinity chromatography. Human core histones were purified from HeLa nuclear pellet per the method of Coté et al. S-adenosylmethionine (SAM) was obtained from Sigma-Aldrich (Cat #A7007) and S-[methyl-3H]-SAM was obtained from Perkin-Elmer ([…]). Methods: […] To this was added enzyme diluted to provide a final assay concentration (GLP: 10 nM; PRMT1: 100 nM; SET7/9: 120 nM; PRDM9: 120 nM; PRMT4: 150 nM; PRMT6: 120 nM; G9a: 200 nM) and the compound was allowed to preincubate for 10 minutes at room temperature. […] Samples were mixed immediately after quenching and transferred to a 96-well GFC Uni-Filter microtiter filter plate (Perkin Elmer, Cat#6005174) that contained 50 μl of 20% TCA. Samples were allowed to precipitate for at least 5 minutes at room temperature. The samples were filtered onto the GFC membrane and washed four times with 100 μl of 10% TCA and once with 100 μl of 95% EtOH. To each well was added 25 μl of MicroScint-20 (Perkin-Elmer Cat#6013621) and samples were analyzed using a TopCount NXT microplate scintillation counter. The experiment was performed one time in duplicate for all compound concentrations tested and in triplicate for the vehicle and no enzyme controls. All data was analyzed in GraphPad Prism (v. 5.04).

SET7/9 = molecular target: T2, SET7/9 (Homo sapiens, UniProt Q8WTS6); experiment: Radiometric methyltransferase assay, SET7/9; conditions: SET7/9 120 nM; compound 10 μM, 1 μM, or 0.1 μM; FIG. 13
T2 construct: purchased Cayman 10320
T2 sequence (Q8WTS6 1-366): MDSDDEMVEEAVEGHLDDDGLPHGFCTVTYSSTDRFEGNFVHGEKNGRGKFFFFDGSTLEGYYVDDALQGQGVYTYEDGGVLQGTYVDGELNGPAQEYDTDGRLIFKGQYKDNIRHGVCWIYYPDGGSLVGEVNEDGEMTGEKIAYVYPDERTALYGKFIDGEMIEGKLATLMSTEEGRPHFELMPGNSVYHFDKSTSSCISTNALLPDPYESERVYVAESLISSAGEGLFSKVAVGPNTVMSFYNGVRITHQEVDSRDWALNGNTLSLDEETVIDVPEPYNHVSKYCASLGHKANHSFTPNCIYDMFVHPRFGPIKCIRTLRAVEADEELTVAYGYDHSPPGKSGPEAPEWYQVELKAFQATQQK
Procedure: as §1

PRMT4 = molecular target: T3, PRMT4 (Homo sapiens, UniProt Q86X55); experiment: Radiometric methyltransferase assay, PRMT4; conditions: PRMT4 150 nM; compound 10 μM, 1 μM, or 0.1 μM; FIG. 13
T3 construct: made in house
T3 sequence (Q86X55 1-608): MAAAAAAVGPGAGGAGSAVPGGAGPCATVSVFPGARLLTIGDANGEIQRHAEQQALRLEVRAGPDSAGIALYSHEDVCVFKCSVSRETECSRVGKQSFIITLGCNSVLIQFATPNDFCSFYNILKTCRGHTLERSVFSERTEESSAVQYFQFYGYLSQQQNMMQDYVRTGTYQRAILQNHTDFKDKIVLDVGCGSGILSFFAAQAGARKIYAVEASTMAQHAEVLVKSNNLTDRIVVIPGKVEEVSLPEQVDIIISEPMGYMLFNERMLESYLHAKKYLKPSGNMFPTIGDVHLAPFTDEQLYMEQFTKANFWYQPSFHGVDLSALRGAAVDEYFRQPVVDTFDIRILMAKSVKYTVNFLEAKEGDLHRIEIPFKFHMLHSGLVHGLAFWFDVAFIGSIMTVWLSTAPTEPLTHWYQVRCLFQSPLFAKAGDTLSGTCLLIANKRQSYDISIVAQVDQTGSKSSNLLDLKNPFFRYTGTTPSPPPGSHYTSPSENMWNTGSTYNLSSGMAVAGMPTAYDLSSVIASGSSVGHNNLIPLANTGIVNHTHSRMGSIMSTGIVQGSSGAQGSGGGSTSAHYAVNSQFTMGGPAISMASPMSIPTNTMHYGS
Procedure: as §1

| SMILES | inhibition of enzymatic activity (G9a) | inhibition of enzymatic activity (SET7/9) | inhibition of enzymatic activity (PRMT4) |
| --- | --- | --- | --- |
| CSC[C@H]1O[C@@H](n2cnc3c(N)nc(NCCNC(=O)OC(C)(C)C)nc32)[C@H](O)[C@@H]1O [Compound 16A, tert-butyl (2-((6-amino-9-((2R,3R,4S,5S)-3,4-dihydroxy-5-((methylthio)methyl)tetrahydrofuran-2-yl)-9H-purin-2-yl)amino)ethyl)carbamate] | inhibits | not dramatically altering the activity | inhibits |
| CCNC[C@H]1O[C@@H](n2cnc3c(N)nc(Cl)nc32)[C@H](O)[C@@H]1O [Compound 20A-iv, 2-chloroadenosine-5′-N-ethylamine] | did not show appreciable inhibition | did not show appreciable inhibition | did not show appreciable inhibition |
| CCNC(=O)[C@H]1O[C@@H](n2cnc3c(N)nc(Cl)nc32)[C@H](O)[C@@H]1O [Compound 20A-iii, 2-chloroadenosine-5′-N-ethylcarboxamide] | did not show appreciable inhibition | did not show appreciable inhibition | did not show appreciable inhibition |
